The source of these data is BindingDB's records for PubMed 32853683 (Peking Union Medical College, 2020).

The nature of test [1]: Inhibition of caspase-like activity of human 20S proteasome beta 1.
Test [2] can be described thus: Inhibition of trypsin-like activity of human 20S proteasome beta 2.

The IC50 is the concentration that gives 50% inhibition. A low value points to greater potency in that assay. As to `CCCc1ccc(OCC(=O)N(Cc2nc(-c3cccnc3)no2)C(C)C)cc1`, the IC50 in test [1] and in test [2] was more than 50 µM throughout.

For `CCCc1ccc(OCC(=O)N(Cc2nc(-c3ccco3)no2)C(C)C)cc1`, the IC50 in test [1] and in test [2] was more than 50 µM in each case.

As to `CCCc1ccc(OCC(=O)N(Cc2nc(-c3cccs3)no2)C(C)C)cc1`, the IC50 in test [1] and in test [2] was more than 50 µM throughout.

On to `CCCc1ccc(OCC(=O)N(Cc2cccc(-c3cccnc3)c2)C(C)C)cc1`, for which the IC50 in test [1] and in test [2] was more than 50 µM in each case.
